The results in this text go back to PMC10622841, “Structural analysis of a bacterial UDP-sugar 2-epimerase reveals the active site architecture before and after catalysis” (The Journal of Biological Chemistry, 2023).

What is called stoichiometry N is a count of units in the complex or per binding partner.

Assay [1] deals with T1, T. thermophilus 2-epimerase (Thermus thermophilus, UniProt Q72KY0, D98N).
T1 construct: gene TT_C0285; full length, recombinant in E. coli Rosetta2(DE3); tag-free (rTEV-cut N-terminal His tag); homodimer, 82 kDa by gel filtration
The assay can be described thus: X-ray crystallography. The assay is classed as binding. As to conditions: active site; pH 6.0-9.0; C- or N-terminal His tag.

Assay [2] has as its target T1, T. thermophilus 2-epimerase. The experiment in a line: X-ray crystallography; HPLC and mass spectrometry of copurified ligand. In kind it is binding. As to conditions: with UDP-GlcNAc3NAcA in the active site, pH 6.0-9.0.
The target of assay [3] is T2, T. thermophilus 2-epimerase (Thermus thermophilus, UniProt Q72KY0).
T2 construct: gene TT_C0285; full length, recombinant in E. coli Rosetta2(DE3); tag-free (rTEV-cut N-terminal His tag); homodimer, 82 kDa by gel filtration
T2 sequence (Q72KY0 1-365): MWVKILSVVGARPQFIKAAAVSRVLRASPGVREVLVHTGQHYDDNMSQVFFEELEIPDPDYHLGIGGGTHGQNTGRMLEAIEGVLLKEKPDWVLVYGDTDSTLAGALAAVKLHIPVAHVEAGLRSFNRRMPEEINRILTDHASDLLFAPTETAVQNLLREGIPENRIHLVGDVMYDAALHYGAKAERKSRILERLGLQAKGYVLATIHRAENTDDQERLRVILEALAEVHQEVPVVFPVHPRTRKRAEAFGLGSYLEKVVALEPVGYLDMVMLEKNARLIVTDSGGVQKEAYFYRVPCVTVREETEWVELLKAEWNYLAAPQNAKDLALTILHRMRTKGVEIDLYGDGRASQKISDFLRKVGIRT
The experiment in a line: discontinuous anion-exchange HPLC assay. In kind it is biochemical. To be noted: allosteric activator; substrate UDP-GlcNAc3NAcA, pH 8.0, 37 °C, 44 μM enzyme.

The target in assay [4] is T2, T. thermophilus 2-epimerase. The experiment in a line: X-ray crystallography. The assay is classed as binding. To be noted: active site; formed from UDP-GlcNAc3NAcA during crystallization; pH 5.0 and 9.0; C-terminal His tag.
Assay [5] addresses T. thermophilus 2-epimerase, WT enzyme, tag-free (Thermus thermophilus HB27). The assay can be described thus: SEC; gel-filtration chromatography against standards (beta-amylase, acetyl CoA synthase, carbonic anhydrase, cytochrome c); conditions not given. For orientation: SEC sorts molecules by how far they enter the pores of the column.

T1 sequence (Q72KY0 entry or part of it D98N): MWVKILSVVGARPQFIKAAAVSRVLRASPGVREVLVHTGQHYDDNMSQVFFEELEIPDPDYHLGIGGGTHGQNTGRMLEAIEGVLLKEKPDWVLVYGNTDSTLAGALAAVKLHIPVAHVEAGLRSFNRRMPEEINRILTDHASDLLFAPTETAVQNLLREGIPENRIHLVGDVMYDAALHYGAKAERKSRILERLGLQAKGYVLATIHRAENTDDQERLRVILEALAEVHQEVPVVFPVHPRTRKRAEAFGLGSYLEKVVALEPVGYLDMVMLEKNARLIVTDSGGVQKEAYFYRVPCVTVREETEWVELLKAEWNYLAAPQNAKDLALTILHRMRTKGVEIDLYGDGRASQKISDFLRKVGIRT

As for `CC(=O)N[C@H]1[C@@H](OP(=O)(O)OP(=O)(O)OC[C@H]2O[C@@H](n3ccc(=O)[nH]c3=O)[C@H](O)[C@@H]2O)O[C@H](C(=O)O)[C@@H](O)[C@@H]1NC(C)=O` [UDP-GlcNAc3NAcA], the X-ray crystallography entry in assay [1] was “each subunit of the dimer contained both UDP-GlcNAc3NAcA in the active site and UDP-GlcNAc”.
As to `CC(=O)N[C@H]1[C@@H](OP(=O)(O)OP(=O)(O)OC[C@H]2O[C@@H](n3ccc(=O)[nH]c3=O)[C@H](O)[C@@H]2O)O[C@H](CO)[C@@H](O)[C@@H]1O` [UDP-GlcNAc], in assay [2] (allosteric pocket), the “X-ray crystallography; HPLC and mass spectrometry of copurified ligand” value was “UDP-GlcNAc3NAcA in the active site and UDP-GlcNAc in the auxiliary binding pocket”. For the same molecule, in assay [3], the “discontinuous anion-exchange HPLC assay” value is “the addition of UDP-GlcNAc was required for the reactions to proceed”.
Regarding `CC(=O)N[C@@H]1[C@@H](OP(=O)(O)OP(=O)(O)OC[C@H]2O[C@@H](n3ccc(=O)[nH]c3=O)[C@H](O)[C@@H]2O)O[C@H](C(=O)O)[C@@H](O)[C@@H]1NC(C)=O` [UDP-ManNAc3NAcA], in assay [4], the X-ray crystallography result is on record as “the product, namely UDP-ManNAc3NAcA, was observed in each subunit”.
With `O=c1ccn([C@@H]2O[C@H](COP(=O)(O)OP(=O)(O)O)[C@@H](O)[C@H]2O)c(=O)[nH]1` [UDP], the “X-ray crystallography; HPLC and mass spectrometry of copurified ligand” value in assay [2] (allosteric (auxiliary) pocket) was “UDP-GlcNAc3NAcA was bound in the active site and UDP in the auxiliary binding pocket”.
For “T. thermophilus 2-epimerase, WT enzyme, tag-free”, the stoichiometry N in assay [5] amounted to 2.
